From US7691855B2, “Phenyl-[4-(3-phenyl-1h-pyrazol-4-yl)-pyrimidin-2-yl)-amine derivatives” (Novartis AG, priority 2002, dated 2010)

Going from Cc1cccc(-c2n[nH]cc2-c2ccnc(Nc3ccc(N4CCN(C)CC4)cc3)n2)c1C [Example 50, {4-[3-(2,3-Dimethyl-phenyl)-1H-pyrazol-4-yl]-pyrimidin-2-yl}-[4-(4-methyl-piperazin-1-yl)phenyl]-amine] to CN1CCN(c2ccc(Nc3nccc(-c4c[nH]nc4-c4ccccc4Cl)n3)cc2)CC1 [Example 52, {4-[3-(2-Chloro-phenyl)-1H-pyrazol-4-yl]-pyrimidin-2-yl}-[4-(4-methyl-piperazin-1-yl)-phenyl]-amine], the melting point rises from 305 °C to 310 °C.

First: COc1cc(Nc2nccc(-c3c[nH]nc3-c3cccc(C)c3C)n2)cc(OC)c1OC [Example 51, {4-[3-(2,3-Dimethyl-phenyl)-1H-pyrazol-4-yl]-pyrimidin-2-yl}-(3,4,5-trimethoxy-phenyl)-amine]
Second: COc1cc(Nc2nccc(-c3c[nH]nc3-c3ccccc3Cl)n2)cc(OC)c1OC [Example 53, {4-[3-(2-Chloro-phenyl)-1H-pyrazol-4-yl]-pyrimidin-2-yl}-(3,4,5-trimethoxy-phenyl)-amine]
The melting point of the first is lower: 249 °C for the first, 257.5 °C for the second.

Compared with Cc1ccc(-c2c(-c3ccnc(Nc4ccc(N5CCN(C)CC5)cc4)n3)cnn2CCN(C)C)cc1 [Example 54, {4-[1-(2-Dimethylamino-ethyl)-5-p-tolyl-1H-pyrazol-4-yl]-pyrimidin-2-yl}-[4-(4-methyl-piperazin-1-yl)-phenyl]-amine], Cc1ccc(-c2c(-c3ccnc(Nc4ccc(CN5CCN(C)CC5)cc4)n3)cnn2CCN(C)C)cc1 [Example 82, {4-[1-(2-Dimethylamino-ethyl)-5-p-tolyl-1H-pyrazol-4-yl]-pyrimidin-2-yl}-[4-(4 methyl-piperazin-1-ylmethyl)-phenyl]-amine] is lower in melting point: 184 °C for the first, 123 °C for the second.

First: Cc1ccc(-c2nn(CCN(C)C)cc2-c2ccnc(Nc3ccc(N4CCN(C)CC4)cc3)n2)cc1 [Example 55, {4-[1-(2-Dimethylamino-ethyl)-3-p-tolyl-1H-pyrazol-4-yl]-pyrimidin-2-yl}-[4-(4-methyl-piperazin-1-yl)-phenyl]-amine]
Second: Cc1ccc(-c2nn(CCN(C)C)cc2-c2ccnc(Nc3ccc(CN4CCN(C)CC4)cc3)n2)cc1 [Example 83, {4-[1-(2-Dimethylamino-ethyl)-3-p-tolyl-1H-pyrazol-4-yl]-pyrimidin-2-yl}-[4-(4-methyl-piperazin-1-ylmethyl)-phenyl]-amine]
The melting point of the first is higher: 174 °C for the first, 62 °C for the second.

Compared with COc1ccc(Nc2nccc(-c3cnn(C)c3-c3ccc(Cl)cc3Cl)n2)cc1OC [Example 56, {4-[5-(2,4-Dichloro-phenyl)-1-methyl-1H-pyrazol-4-yl]-pyrimidin-2-yl}-(3,4-dimethoxy-phenyl)-amine], COc1ccc(Nc2nccc(-c3cn(C)nc3-c3ccc(Cl)cc3Cl)n2)cc1OC [Example 57, {4-[3-(2,4Dichloro-phenyl)-1-methyl-1H-pyrazol-4-yl]-pyrimidin-2-yl}-(3,4-dimethoxy-phenyl)-amine] is higher in melting point: 157 °C for the first, 180 °C for the second.

First: Cc1ccc(-c2n[nH]cc2-c2ccnc(Nc3ccc(C(=O)O)cc3)n2)cc1 [Example 58, 4-[4-(3-p-Tolyl-1H-pyrazol-4-yl)-pyrimidin-2-ylamino]-benzoic acid]
Second: Cc1ccc(-c2n[nH]cc2-c2ccnc(Nc3ccc(C(=O)N4CCN(C)CC4)cc3)n2)cc1 [Example 59, (4Methyl-piperazin-1-yl)-{4-[4-(3-p-tolyl-1H-pyrazol-4-yl)-pyrimidin-2-ylamino]-phenyl}-methanone]
The melting point of the first is higher: 341 °C for the first, 264 °C for the second.

Compared with Cc1ccc(-c2c(-c3ccnc(Nc4ccc(N5CCN(C)CC5)cc4)n3)cnn2C)cc1 [Example 63, [4-(4-Methyl-piperazin-1-yl)-phenyl]-[4-(1-methyl-5-p-tolyl-1H-pyrazol-4-yl)-pyrimidin-2-yl]-amine], Cc1ccc(-c2c(-c3ccnc(Nc4ccc(CN5CCN(C)CC5)cc4)n3)cnn2C)cc1 [Example 65, [4-(4-Methyl-piperazin-1-ylmethyl)-phenyl]-[4(1-methyl-5-p-tolyl-1H-pyrazol-4-yl)-pyrimidin-2-yl]-amine] is lower in melting point: 261 °C for the first, 192 °C for the second.

Going from Cc1ccc(-c2nn(C)cc2-c2ccnc(Nc3ccc(N4CCN(C)CC4)cc3)n2)cc1 [Example 64, [4-(4-Methyl-piperazin-1-yl)-phenyl]-[4-(1-methyl-3-p-tolyl-1H-pyrazol-4-yl)-pyrimidin-2-yl]-amine] to Cc1ccc(-c2nn(C)cc2-c2ccnc(Nc3ccc(CN4CCN(C)CC4)cc3)n2)cc1 [Example 66, [4-(4-Methyl-piperazin-1-ylmethyl)-phenyl]-[4-(1-methyl-3-p-tolyl-1H-pyrazol-4-yl)-pyrimidin-2-yl]-amine], the melting point falls from 203 °C to 151 °C.

First: COc1cc(Nc2nccc(-c3c[nH]nc3-c3ccc(Cl)cc3)n2)cc(OC)c1OC [Example 67, {4-[3-(4-Chloro-phenyl)-1H-pyrazol-4-yl]-pyrimidin-2-yl}-(3,4,5-trimethoxy-phenyl)-amine]
Second: COc1ccc(Nc2nccc(-c3c[nH]nc3-c3ccc(Cl)cc3)n2)cc1OC [Example 68, {4-[3-(4-Chloro-phenyl)-1H-pyrazol-4yl]-pyrimidin-2-yl}-(3,4-dimethoxy-phenyl)-amine]
The melting point of the first is higher: 271 °C for the first, 261 °C for the second.

Going from COc1cccc(Nc2nccc(-c3c[nH]nc3-c3ccc(Cl)cc3)n2)c1 [Example 69, {4-[3-(4-Chloro-phenyl)-1H-pyrazol-4-yl]-pyrimidin-2-yl}-(3-methoxy-phenyl)-amine] to COc1cccc(Nc2nccc(-c3cnn(CCN(C)C)c3-c3ccc(Cl)cc3)n2)c1 [Example 75, {-4-[5-(4Chloro-phenyl)-1-(2-dimethylamino-ethyl)-1H-pyrazol-4-yl]-pyrimidin-2-yl}-(3-methoxy-phenyl)-amine], the melting point falls from 261 °C to 118 °C.

Compared with COc1cc(Nc2nccc(-c3cn(CCN(C)C)nc3-c3ccc(Cl)cc3)n2)cc(OC)c1OC [Example 70, {4-[3-(4-Chloro-phenyl)-1-(2-dimethylamino-ethyl)-1H-pyrazol-4-yl]-pyrimidin-2-yl}-(3,4,5-trimethoxy-phenyl)-amine], COc1cc(Nc2nccc(-c3cnn(CCN(C)C)c3-c3ccc(Cl)cc3)n2)cc(OC)c1OC [Example 71, {4-[5-(4-Chloro-phenyl)-1-(2-dimethylamino-ethyl)-1H-pyrazol-4-yl]-pyrimidin-2-yl}-(3,4,5-trimethoxy-phenyl)-amine] is higher in melting point: 150 °C for the first, 153 °C for the second.

Going from COc1ccc(Nc2nccc(-c3cnn(CCN(C)C)c3-c3ccc(Cl)cc3)n2)cc1OC [Example 73, {4-[5-(4-Chloro-phenyl)-1-(2-dimethylamino-ethyl)-1H-pyrazol-4-yl]-pyrimidin-2-yl}-(3,4-dimethoxy-phenyl)-amine] to CN(C)CCn1ncc(-c2ccnc(Nc3ccc(CN4CCN(C)CC4)cc3)n2)c1-c1ccc(Cl)cc1 [Example 77, {4-[5-(4-Chloro-phenyl)-1-(2-dimethylamino-ethyl)-1H-pyrazol-4yl]-pyrimidin-2-yl}-[4-(4-methyl-piperazin-1-ylmethyl)-phenyl]-amine], the melting point rises from 157 °C to 159 °C.

Compared with CN1CCN(Cc2ccc(Nc3nccc(-c4cn(C)nc4-c4ccc(Cl)cc4)n3)cc2)CC1 [Example 78, {4-[3-(4-Chloro-phenyl)-1-methyl-1H-pyrazol-4yl]-pyrimidin-2-yl}-[4-(4-methyl-piperazin-1-ylmethyl)-phenyl]-amine], CN1CCN(Cc2ccc(Nc3nccc(-c4cnn(C)c4-c4ccc(Cl)cc4)n3)cc2)CC1 [Example 79, {4-[5-(4Chloro-phenyl)-1-methyl-1H-pyrazol-4-yl]-pyrimidin-2-yl}-[4-(4-methyl-piperazin-1-ylmethyl)-phenyl]-amine] is higher in melting point: 166 °C for the first, 186 °C for the second.

Compared with CN1CCC(n2cc(-c3ccnc(Nc4ccc(CN5CCN(C)CC5)cc4)n3)c(-c3ccc(Cl)cc3)n2)CC1 [Example 80, {4-[3-(4-Chloro-phenyl)-1-(1-methyl-piperidin-4-yl)-1H-pyrazol-4yl]-pyrimidin-2-yl}-[4-(4-methyl-piperazin-1-yl-methyl)-phenyl]-amine], Cc1ccc(-c2nn(C3CCN(C)CC3)cc2-c2ccnc(Nc3ccc(CN4CCN(C)CC4)cc3)n2)cc1 [Example 85, [4-(4-Methyl-piperazin-1-ylmethyl)-phenyl]-{4-[1-(1-methyl-piperidin-4-yl)-3-p-tolyl-1H-pyrazol-4-yl]-pyrimidin-2-yl}-amine] is higher in melting point: 164 °C for the first, 174 °C for the second.

Compared with CN1CCC(n2ncc(-c3ccnc(Nc4ccc(CN5CCN(C)CC5)cc4)n3)c2-c2ccc(Cl)cc2)CC1 [Example 81, {4-[5-(4-Chloro-phenyl)-1-(1-methyl-piperidin-4yl)-1H-pyrazol-4yl]-pyrimidin-2-yl}-[4-(4methyl-piperazin-1-ylmethyl)-phenyl]-amine], Cc1ccc(-c2c(-c3ccnc(Nc4ccc(CN5CCN(C)CC5)cc4)n3)cnn2C2CCN(C)CC2)cc1 [Example 84, [4-(4-Methyl-piperazin-1-ylmethyl)-phenyl]-{4-[1-(1-methyl-piperidin-4-yl)-5-p-tolyl-1H-pyrazol-4-yl]-pyrimidin-2-yl}-amine] is higher in melting point: 180 °C for the first, 187 °C for the second.

First: COc1cccc(Nc2nccc(-c3cn(CC4CCN(C)CC4)nc3-c3ccc(Cl)cc3)n2)c1 [Example 107, {4-[3-(4-Chloro-phenyl)-1-(1methyl-piperidin-4-ylmethyl)-1H-pyrazol-4-yl]-pyrimidin-2-yl}-(3-methoxy-phenyl)-amine]
Second: COc1cccc(Nc2nccc(-c3cnn(CC4CCN(C)CC4)c3-c3ccc(Cl)cc3)n2)c1 [Example 108, {4-[5-(4-Chloro-phenyl)-1-(1-methyl-piperidin-4-ylmethyl)-1H-pyrazol-4-yl]-pyrimidin-2-yl}-(3-methoxy-phenyl)-amine]
The melting point of the first is lower: 65 °C for the first, 180 °C for the second.

Going from CN1CCN(Cc2ccc(Nc3nccc(-c4c[nH]nc4-c4cccc(C(F)(F)F)c4)n3)cc2)CC1 [Example 110, [4-(4-Methyl-piperazin-1-ylmethyl)-phenyl]-{4-[3-(3-trifluoromethyl-phenyl)-1H-pyrazol-4yl]-pyrimidin-2-yl}-amine] to Cc1ccc(-c2n[nH]cc2-c2ccnc(Nc3ccc(CN4CCN(CCO)CC4)cc3)n2)cc1 [Example 111, 2-(4-{4-[4-(3-p-Tolyl-1H-pyrazol-4yl)-pyrimidin-2-ylamino]-benzyl}piperazin-1-yl)-ethanol], the melting point rises from 221 °C to 233 °C.
